Reference: patent US11964971B2, “Methods and compositions for modulating splicing” (Skyhawk Therapeutics, Inc., priority 2019, dated 2024)

Experiments:
[1] = test system: MDR1; experiment: in vitro; details: dog; for Papp A→B at 120 min, 5 μM: MDCK-MDR1, pH 7.4, MDCK-MDR1: Papp A-B (10^−6, cm/s); for Papp B→A at 120 min, 5 μM: MDCK-MDR1, pH 7.4, MDCK-MDR1: Papp B-A (10^−6, cm/s)
[2] = test system: SMN FL and SMN Δ7; experiment: Quantitative splicing assay (SMN) in SMA patient fibroblasts (GM03813); assay type: cell-based; details: Homo sapiens, Fibroblast; class symbol; read-out: SMN2 Splicing FL EC50 (nM)*
Description: Spinal muscular atrophy (SMA) patient fibroblasts (GM03813, Coriell) are plated in 96-well plates at 50,000 cells/well. […] Treated cells are lysed and cDNA synthesized using the Fast Advanced Cells-to-Ct kit (Thermofisher A35378) according to the manufacturer's instructions. 2 μL of each cDNA are used in qPCR reactions. […] Reactions are run in a Quant Studio 6 qPCR instrument with default settings.

[3] = test system: MDR1 (P-gp); experiment: MDCK-MDR1 permeability assay, blood-brain-barrier penetration potential; details: dog, MDCK-MDR1, pH 7.4, MDCK-MDR1 Efflux Ratio
[4] = test system: MDR1-MDCK cell monolayers; details: dog, MDCK-MDR1, 120 min, 5 μM, pH 7.4
[5] = test system: SMN protein; experiment: SMN protein assay (MSD) in SMA patient fibroblasts (GM03813); assay type: cell-based, human
How it was run: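 SMA patient fibroblasts GM03813 (7000 cells/well) treated 48 h with compounds from 2.5 μM to 0.6 nM. Lysate SMN protein quantified by MSD immunoassay against an SMN standard curve (1 to 19.5 μg/ml) on each plate, giving absolute amounts.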

Structure (SMILES) | Papp A→B at 120 min, 5 μM [1] | Papp B→A at 120 min, 5 μM [1] | EC50 [2] | efflux ratio at 120 min, 5 μM [3] | MDCK-MDR1: % Recov A-B (%) [4] | MDCK-MDR1: % Recov B-A (%) [4] | EC50 [5]
COc1cc(-c2cc(O)c(-c3cnc(N(C)[C@H]4C[C@@H]5CCC(N5)[C@H]4F)cn3)cc2F)ncn1 (single isomer, unassigned) [Compound 34E2] | 3.76 ×10⁻⁶ cm/s | 7.23 ×10⁻⁶ cm/s | 51 to 100 nM | 2 | 21% | 66% | 16 to 50 nM
CNC(=O)/C=C/c1cc(O)c(-c2cnc(N(C)[C@H]3C[C@@H]4CCC(N4)[C@H]3F)cn2)cc1F (single isomer, unassigned) [Compound 60E2] | 2.48 ×10⁻⁶ cm/s | 60.1 ×10⁻⁶ cm/s | 51 to 100 nM | 24 | 89% | 89% | 0.01 to 15 nM
CN(c1cnc(-c2ccc(-c3cnn(C)c3)cc2O)cn1)[C@@H]1CC2CC[C@H](N2)[C@@H]1F (single isomer, unassigned) [Compound 16E1] | 5.62 ×10⁻⁶ cm/s | 20.6 ×10⁻⁶ cm/s | 501 to 10000 nM | 4 | 45% | 79% | 16 to 50 nM
CN(c1cnc(-c2ccc(-c3cnn(C)c3)cc2O)cn1)[C@H]1C[C@@H]2CCC(N2)[C@H]1F (single isomer, unassigned) [Compound 16E2] | 7.68 ×10⁻⁶ cm/s | 28.4 ×10⁻⁶ cm/s | 101 to 500 nM | 4 | 54% | 86% | 16 to 50 nM
COc1cc(-c2ccc(-c3cnc(N(C)[C@H]4C[C@@H]5COCC(N5)[C@H]4F)cn3)c(O)c2)ccn1 (single isomer, unassigned) [Compound 81E2] | 2 ×10⁻⁶ cm/s | 3.4 ×10⁻⁶ cm/s | 101 to 500 nM | 2 | 42% | 77% | 501 to 10000 nM
CN(c1cnc(-c2cc(F)c(-c3cnn(C)c3)cc2O)cn1)[C@H]1C[C@]2(C)CC[C@@](C)(N2)[C@H]1F [Compound 58E2, 4-fluoro-2-(5-(((1R,2S,3S,5S)-2-fluoro-1,5-dimethyl-8-azabicyclo[3.2.1]octan-3-yl)(methyl)amino)pyrazin-2-yl)-5-(1-methyl-1H-pyrazol-4-yl)phenol] | 5.98 ×10⁻⁶ cm/s | 16.4 ×10⁻⁶ cm/s | 101 to 500 nM | 3 | 32% | 69% | 0.01 to 15 nM
CN(c1cnc(-c2ccc(-c3cn[nH]c3)cc2O)cn1)[C@H]1CC2CCC[C@@H](N2)[C@H]1F (single isomer, unassigned) [Compound 6E2] | 3.67 ×10⁻⁶ cm/s | 22.2 ×10⁻⁶ cm/s | 16 to 50 nM | 6 | 70% | 58% | 0.01 to 15 nM
CN(c1cnc(-c2ccc(C3=CC(=O)NC3)cc2O)cn1)[C@H]1C[C@@H]2CCC(N2)[C@H]1F (single isomer, unassigned) [Compound 78E2] | 0.56 ×10⁻⁶ cm/s | 30.7 ×10⁻⁶ cm/s | 501 to 10000 nM | 55 | 94% | 82% | 16 to 50 nM
COc1cc(-c2ccc(-c3cnc(N(C)[C@@H]4CC5CC[C@H](N5)[C@@H]4F)cn3)c(O)c2)ncn1 (single isomer, unassigned) [Compound 48E1] | 4.15 ×10⁻⁶ cm/s | 6.9 ×10⁻⁶ cm/s | 101 to 500 nM | 2 | 21% | 44% | 16 to 50 nM
CN(c1cnc(-c2ccc(-c3ccn(C)c(=O)c3)cc2O)cn1)[C@H]1C[C@@H]2CCCC(N2)[C@H]1F (single isomer, unassigned) [Compound 83E2] | 1.28 ×10⁻⁶ cm/s | 45 ×10⁻⁶ cm/s | 101 to 500 nM | 36 | 106% | 118% | 16 to 50 nM
CN(c1cnc(-c2ccc(-c3ccn(C)c(=O)c3)cc2O)cn1)[C@@H]1CC2CCC[C@H](N2)[C@@H]1F (single isomer, unassigned) [Compound 83E1] | 0.94 ×10⁻⁶ cm/s | 48.4 ×10⁻⁶ cm/s | 101 to 500 nM | 52 | 78% | 81% | 101 to 500 nM
COc1cc(-c2ccc(-c3cnc(N(C)[C@H]4C[C@@H]5CCC(N5)[C@H]4F)cn3)c(O)c2)cnn1 (single isomer, unassigned) [Compound 26E2] | 3.16 ×10⁻⁶ cm/s | 23.9 ×10⁻⁶ cm/s | 101 to 500 nM | 8 | 41% | 67% | 16 to 50 nM
CN(C)C(=O)c1cc2cc(O)c(-c3cnc(N(C)[C@@H]4C[C@H]5CCC(N5)[C@@H]4F)cn3)cc2o1 (single isomer, unassigned) [Compound 7E1] | 1.78 ×10⁻⁶ cm/s | 42.4 ×10⁻⁶ cm/s | 501 to 10000 nM | 24 | 91% | 88% | 501 to 10000 nM
CN(c1cnc(-c2ccc(-c3cn[nH]c3)cc2O)cn1)[C@H]1C[C@@H]2CCC(N2)[C@@H]1F (single isomer, unassigned) [Compound 27E2] | 4.45 ×10⁻⁶ cm/s | 40.6 ×10⁻⁶ cm/s | 101 to 500 nM | 9 | 80% | 85% | 16 to 50 nM
CN(c1cnc(-c2ccc(-c3cn[nH]c3)cc2O)cn1)[C@@H]1CC2COC[C@H](N2)[C@@H]1F (single isomer, unassigned) [Compound 72E1] | 8.21 ×10⁻⁶ cm/s | 60.9 ×10⁻⁶ cm/s | 501 to 10000 nM | 7 | 90% | 112% | 501 to 10000 nM
CN(c1cnc(-c2cc(F)c(-c3ccn(C)c(=O)c3)cc2O)cn1)[C@H]1C[C@@H]2CCCC(N2)[C@H]1F (single isomer, unassigned) [Compound 12E2] | 2.14 ×10⁻⁶ cm/s | 57.4 ×10⁻⁶ cm/s | 501 to 10000 nM | 27 | 72% | 88% | 16 to 50 nM
COc1cc(-c2ccc(-c3cnc(N(C)[C@H]4C[C@@H]5COCC(N5)[C@H]4F)cn3)c(O)c2)cnn1 (single isomer, unassigned) [Compound 74E2] | 3.6 ×10⁻⁶ cm/s | 63.2 ×10⁻⁶ cm/s | 501 to 10000 nM | 18 | 92% | 104% | 501 to 10000 nM
CN(c1cnc(-c2cc(F)c(-c3cnn(CF)c3)cc2O)cn1)[C@H]1C[C@@H]2CCC(N2)[C@H]1F (single isomer, unassigned) [Compound 29E2] | 5.59 ×10⁻⁶ cm/s | 18.3 ×10⁻⁶ cm/s | 51 to 100 nM | 3 | 31% | 50% | 16 to 50 nM
CN(c1cnc(-c2ccc(-c3ccn(C)c(=O)c3)cc2O)cn1)[C@@H]1CC2CC[C@H](N2)[C@@H]1F (single isomer, unassigned) [Compound 45E1] | 1.3 ×10⁻⁶ cm/s | 47.6 ×10⁻⁶ cm/s | 51 to 100 nM | 37 | 88% | 85% | 101 to 500 nM
CN(c1cnc(-c2ccc(-c3cn[nH]c3)cc2O)cn1)[C@H]1C[C@]2(C)CCC(N2)[C@H]1F (single isomer, unassigned) [Compound 28E1] | 3.23 ×10⁻⁶ cm/s | 48.1 ×10⁻⁶ cm/s | 101 to 500 nM | 15 | 66% | 80% | 0.01 to 15 nM
CN(c1cnc(-c2ccc(-c3ccn(C)c(=O)c3)cc2O)cn1)[C@H]1CC2CCC[C@@H](N2)[C@H]1F (single isomer, unassigned) [Compound 5E2] | 1.96 ×10⁻⁶ cm/s | 43 ×10⁻⁶ cm/s | 101 to 500 nM | 22 | 78% | 82% | 16 to 50 nM
CNC(=O)/C=C/c1cc(O)c(-c2cnc(N(C)[C@H]3C[C@]4(C)CC[C@@](C)(N4)[C@H]3F)cn2)cc1F [Compound 61E2, (E)-3-(2-fluoro-4-(5-(((1R,2S,3S,5S)-2-fluoro-1,5-dimethyl-8-azabicyclo[3.2.1]octan-3-yl)(methyl)amino)pyrazin-2-yl)-5-hydroxyphenyl)-N-methylacrylamide] | 0.77 ×10⁻⁶ cm/s | 41.9 ×10⁻⁶ cm/s | 501 to 10000 nM | 54 | 86% | 89% | 0.01 to 15 nM
